Source: patent US7622469B2, “2,4-diamino-1,3,5-triazine derivatives” (Hamari Chemicals, Ltd., priority 2002, dated 2009)

Experiments:
E. coli NIHJ JC-2 [1] = assay: Bactericidal activity test (MBC, phenol coefficient measuring method); assay type: cell-based
Description: (§1) As a test bacterium, the same bacteria species as those of the antibacterial activity test were used; as a medium to be used, a SCD medium (manufactured by Eiken Chemical Co., Ltd.) was used for pre-culture medium; and a heart infusion bouillon medium (manufactured by Eiken Chemical Co., Ltd.) was used as a medium for growing a live bacterium in a test solution after bactericidal treatment. One platinum loop of a test bacterium was inoculated into 20 ml of a medium, and static culture was carried out at 37° C. for 18 to 20 hours, and the cells were adjusted with a sterilized physiological saline to 1×10^7/ml, which was used as a test bacterium solution.
(§2) Then, a solution of each compound in methanol was subjected to ½ stepwise dilution with sterilized water, each 5 ml was dispensed into a test tube, 0.5 ml of the previously prepared test bacterium solution was added thereto, and the mixture was blended well. After 1 minute, 3 minutes and 5 minutes has passed, 5 μl of the test solution was collected and inoculated into 2 ml of a heart infusion bouillon medium, this was cultured at 37° C. for 40 to 48 hours, and the presence or absence of growth of a bacterium was determined. A test was performed three times, a minimum concentration at which growth of a bacterium was not recognized two or more times was adopted as a minimal bactericidal concentration (MBC value).
(§3) Numerical values in Tables represent MBC expressed in μg/ml unit.

S. aureus 209PJC [2] = assay: as above; assay type: cell-based
Description: as §1, §2, §3

P. aeruginosa KM 97-5 [3] = assay: as above; assay type: cell-based
Description: as §1, §2, §3

P. aeruginosa No. 12 [4] = assay: as above; assay type: cell-based
Description: as §1, §2, §3

MRSA KM 97-108 [5] = assay: as above; assay type: cell-based, methicillin-resistant Staphylococcus aureus
Description: as §1, §2, §3

MRSA KM 97-53 [6] = assay: as above; assay type: cell-based, methicillin-resistant Staphylococcus aureus
Description: as §1, §2, §3

MRSA 97-115 [7] = assay: as above; assay type: cell-based, methicillin-resistant Staphylococcus aureus
Description: as §1, §2, §3

MRSA KM 97-108 [8] = assay: Antibacterial activity test (MIC); assay type: cell-based, methicillin-resistant Staphylococcus aureus; details: Mueller-Hinton Broth, 37° C., 20 to 24 hours
Summary of the method: (§4)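 Broth dilution MIC per the Japanese Society of Chemotherapy standard method in Mueller-Hinton Broth. Strains were grown statically at 37° C for 16 to 20 hours and diluted in sterile saline to 10^5/ml. Compounds were dissolved in methanol and serially diluted twofold in medium, giving 100 μg/ml and 2^n-fold (n=−10 to 1).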

MRSA KM 97-53 [9] = assay: Antibacterial activity test (MIC); assay type: cell-based, methicillin-resistant Staphylococcus aureus; details: Mueller-Hinton Broth, 37° C., 20 to 24 hours
Summary of the method: as §4

MRSA 97-115 [10] = assay: Antibacterial activity test (MIC); assay type: cell-based, methicillin-resistant Staphylococcus aureus; details: Mueller-Hinton Broth, 37° C., 20 to 24 hours
Summary of the method: as §4

E. coli NIHJ JC-2 [11] = assay: Antibacterial activity test (MIC); assay type: cell-based; details: Mueller-Hinton Broth, 37° C., 20 to 24 hours
Summary of the method: as §4

S. aureus 209PJC [12] = assay: Antibacterial activity test (MIC); assay type: cell-based; details: Mueller-Hinton Broth, 37° C., 20 to 24 hours
Summary of the method: as §4

P. aeruginosa KM 97-5 [13] = assay: Antibacterial activity test (MIC); assay type: cell-based; details: Mueller-Hinton Broth, 37° C., 20 to 24 hours
Summary of the method: as §4

P. aeruginosa No. 12 [14] = assay: Antibacterial activity test (MIC); assay type: cell-based; details: Mueller-Hinton Broth, 37° C., 20 to 24 hours
Summary of the method: as §4

VRE 49 [15] = assay: Antibacterial activity test (MIC); assay type: cell-based, vancomycin-resistant enterococci; details: Mueller-Hinton Broth, 37° C., 20 to 24 hours
Description: Regarding compounds obtained in respective Working Examples, in order to investigate antibacterial activity, minimal inhibitory concentration (MIC) was determined according to a standard method of Japanese Society of Chemotherapy.
As a test bacterium, nine kinds of S. aureus 209PJC, MRSA 97-115, MRSA KM 97-53, MRSA KM97-108, VRE 49, E. coli NIHJ JC-2, P. aeruginosa PAO-1, P. aeruginosa No. 12, P. aeruginosa KM97-5 were used and, as a medium, Mueller-Hinton Broth (DIFCO) was used. One platinum loop of a test bacterium was inoculated into 20 ml of a medium, and static culture was carried out at 37° C. for 16 to 20 hours, and then each bacterium species was diluted with a sterilized physiological saline to 10^5/ml, which was used as a test bacterium solution.
Then, each compound was dissolved in methanol, subjected to ½ stepwise dilution with a medium to prepare a medium for measuring sensitivity, and each 2 ml was dispensed into a test tube. A compound concentration in a medium was adjusted to 100 μg/ml and its 2^n-fold (n=−10 to 1).
Numerical values in Tables represent MIC expressed in μg/ml unit.

VRE 49 [16] = assay: Bactericidal activity test (MBC, phenol coefficient measuring method); assay type: cell-based, vancomycin-resistant enterococci
Description: as §1, §2, §3

P. aeruginosa PAO-1 [17] = assay: as above; assay type: cell-based
Description: as §1, §2, §3

P. aeruginosa PAO-1 [18] = assay: Antibacterial activity test (MIC); assay type: cell-based; details: Mueller-Hinton Broth, 37° C., 20 to 24 hours
Summary of the method: as §4

Structure (SMILES) | minimal bactericidal concentration (MBC) (E. coli NIHJ JC-2 [1]; 1 min) [mg/L] | minimal bactericidal concentration (MBC) (E. coli NIHJ JC-2 [1]; 3 min) [mg/L] | minimal bactericidal concentration (MBC) (E. coli NIHJ JC-2 [1]; 5 min) [mg/L] | minimal bactericidal concentration (MBC) (S. aureus 209PJC [2]; 1 min) [mg/L] | minimal bactericidal concentration (MBC) (S. aureus 209PJC [2]; 3 min) [mg/L] | minimal bactericidal concentration (MBC) (S. aureus 209PJC [2]; 5 min) [mg/L] | minimal bactericidal concentration (MBC) (P. aeruginosa KM 97-5 [3]; 1 min) [mg/L] | minimal bactericidal concentration (MBC) (P. aeruginosa KM 97-5 [3]; 3 min) [mg/L] | minimal bactericidal concentration (MBC) (P. aeruginosa KM 97-5 [3]; 5 min) [mg/L] | minimal bactericidal concentration (MBC) (P. aeruginosa No. 12 [4]; 1 min) [mg/L] | minimal bactericidal concentration (MBC) (P. aeruginosa No. 12 [4]; 3 min) [mg/L] | minimal bactericidal concentration (MBC) (P. aeruginosa No. 12 [4]; 5 min) [mg/L] | minimal bactericidal concentration (MBC) (MRSA KM 97-108 [5]; 1 min) [mg/L] | minimal bactericidal concentration (MBC) (MRSA KM 97-108 [5]; 3 min) [mg/L] | minimal bactericidal concentration (MBC) (MRSA 97-115 [7]; 1 min) [mg/L] | minimal bactericidal concentration (MBC) (MRSA 97-115 [7]; 3 min) [mg/L] | minimal bactericidal concentration (MBC) (MRSA 97-115 [7]; 5 min) [mg/L] | minimal inhibitory concentration (MIC) (MRSA 97-115 [10]) [mg/L] | minimal inhibitory concentration (MIC) (E. coli NIHJ JC-2 [11]) [mg/L] | minimal inhibitory concentration (MIC) (S. aureus 209PJC [12]) [mg/L] | further results
N=C(NCCCCCCNC(=N)NC(=N)Nc1ccc(Cl)cc1)NC(=N)Nc1ccc(Cl)cc1.O=C(O)[C@H](O)[C@@H](O)[C@H](O)[C@H](O)CO.O=C(O)[C@H](O)[C@@H](O)[C@H](O)[C@H](O)CO [Control drug, chlorhexidine gluconate, reference compound] | 62.5 | 31.3 | 15.6 | 62.5 | 62.5 | 62.5 | 31 | 16 | 8 | 125 | 32 | 32 | 500 | 500 | 1000 | 250 | 125 | 3.1 | 1.6 | 0.2 | minimal bactericidal concentration (MBC) (MRSA KM 97-108 [5]; 5 min): 500 mg/L; minimal bactericidal concentration (MBC) (MRSA KM 97-53 [6]; 1 min): 500 mg/L; minimal bactericidal concentration (MBC) (MRSA KM 97-53 [6]; 3 min): 250 mg/L; minimal bactericidal concentration (MBC) (MRSA KM 97-53 [6]; 5 min): 250 mg/L; minimal inhibitory concentration (MIC) (MRSA KM 97-108 [8]): 3.1 mg/L; minimal inhibitory concentration (MIC) (MRSA KM 97-53 [9]): 3.1 mg/L; minimal inhibitory concentration (MIC) (P. aeruginosa KM 97-5 [13]): 12.5 mg/L; minimal inhibitory concentration (MIC) (P. aeruginosa No. 12 [14]): 12.5 mg/L; minimal inhibitory concentration (MIC) (VRE 49 [15]): 3.1 mg/L; minimal bactericidal concentration (MBC) (VRE 49 [16]; 1 min): >1000 mg/L; minimal bactericidal concentration (MBC) (VRE 49 [16]; 3 min): >1000 mg/L; minimal bactericidal concentration (MBC) (VRE 49 [16]; 5 min): >1000 mg/L
CC(=O)O.CCCCCCCCCNC1=NC(C)(C)N=C(NCc2ccccc2)N1 [compound 48] | 6.3 | 6.3 | 3.1 | 12.5 | 6.3 | 6.3 | 3.1 | 3.1 | 3.1 | 25 | 12.5 | 12.5 | 50 | 50 | 12.5 | 6.3 | 6.3 | 1.6 | 12.5 | 0.8 | minimal bactericidal concentration (MBC) (P. aeruginosa PAO-1 [17]; 1 min): 6.3 mg/L; minimal bactericidal concentration (MBC) (P. aeruginosa PAO-1 [17]; 3 min): 3.1 mg/L; minimal bactericidal concentration (MBC) (P. aeruginosa PAO-1 [17]; 5 min): 3.1 mg/L; minimal bactericidal concentration (MBC) (MRSA KM 97-108 [5]; 5 min): 25 mg/L; minimal bactericidal concentration (MBC) (MRSA KM 97-53 [6]; 1 min): 50 mg/L; minimal bactericidal concentration (MBC) (MRSA KM 97-53 [6]; 3 min): 25 mg/L; minimal bactericidal concentration (MBC) (MRSA KM 97-53 [6]; 5 min): 25 mg/L; minimal inhibitory concentration (MIC) (MRSA KM 97-108 [8]): 1.6 mg/L; minimal inhibitory concentration (MIC) (MRSA KM 97-53 [9]): 0.8 mg/L; minimal inhibitory concentration (MIC) (P. aeruginosa KM 97-5 [13]): 25 mg/L; minimal inhibitory concentration (MIC) (P. aeruginosa PAO-1 [18]): 12.5 mg/L; minimal inhibitory concentration (MIC) (P. aeruginosa No. 12 [14]): 25 mg/L; minimal inhibitory concentration (MIC) (VRE 49 [15]): 0.8 mg/L; minimal bactericidal concentration (MBC) (VRE 49 [16]; 1 min): 25 mg/L; minimal bactericidal concentration (MBC) (VRE 49 [16]; 3 min): 12.5 mg/L; minimal bactericidal concentration (MBC) (VRE 49 [16]; 5 min): 12.5 mg/L
CC(=O)O.CCCCCCCCNC1=NC(C)(C)N=C(Nc2cnc3ccccc3c2)N1 [compound 82] | 6.3 | 6.3 | 3.1 | 12.5 | 6.3 | 6.3 |  |  |  |  |  |  |  |  | 50 | 25 | 25 | 1.6 | 25 | 0.8 | minimal bactericidal concentration (MBC) (P. aeruginosa PAO-1 [17]; 1 min): 12.5 mg/L; minimal bactericidal concentration (MBC) (P. aeruginosa PAO-1 [17]; 3 min): 12.5 mg/L; minimal bactericidal concentration (MBC) (P. aeruginosa PAO-1 [17]; 5 min): 6.3 mg/L; minimal inhibitory concentration (MIC) (P. aeruginosa PAO-1 [18]): 50 mg/L
